The record followed here is PubChem BioAssay AID256 (DTP/NCI, 2004).

Values joined by “and” are separate entries in the source; they are usually repeats but may differ in a detail not shown here. Identical values can stand only once. Toxic doses and inconclusive results are not listed.

For the assay, the system named is CD2F1 mice, L1210 leukemia ip, survival T/C. Nature of the assay: NCI In Vivo Anticancer Drug Screen. Data for tumor model L1210 Leukemia (intraperitoneal) in CD2F1 (CDF1) mice. Conditions: higher = longer survival. The gist of the method: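 Read-out first: treated-group measurement over vehicle-control measurement, expressed as a ratio. Animals bore a transplanted tumor line and were dosed with compound or vehicle.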

[1] abbreviates: endpoint: mean survival time, dose: 100.0 mg/kg/injection, schedule: Q04DX002 (ip), vehicle: saline with Tween-80.
Setting [2] is: endpoint: mean survival time, dose: 100.0 mg/kg/injection, schedule: Q01DX001 (ip), vehicle: saline with Tween-80.
Setting [3] is: endpoint: mean survival time, dose: 100.0 mg/kg/injection, schedule: Q01DX009 (ip), vehicle: saline with Tween-80.
[4] abbreviates: endpoint: mean survival time, dose: 200.0 mg/kg/injection, schedule: Q01DX009 (ip), vehicle: saline with Tween-80.
[5] abbreviates: endpoint: mean survival time, dose: 25.0 mg/kg/injection, schedule: Q04DX003 (ip), vehicle: saline with Tween-80.
Where [6] appears, read: endpoint: mean survival time, dose: 50.0 mg/kg/injection, schedule: Q04DX003 (ip), vehicle: saline with Tween-80.
Where [7] appears, read: endpoint: mean survival time, dose: 100.0 mg/kg/injection, schedule: Q04DX003 (ip), vehicle: saline with Tween-80.
The mark [8] stands for this setting: endpoint: mean survival time, dose: 200.0 mg/kg/injection, schedule: Q01DX001 (ip), vehicle: saline.
The mark [9] stands for this setting: endpoint: mean survival time, dose: 200.0 mg/kg/injection, schedule: Q04DX003 (ip), vehicle: saline with Tween-80.
[10] abbreviates: endpoint: mean survival time, dose: 400.0 mg/kg/injection, schedule: Q04DX003 (ip), vehicle: saline with Tween-80.

Regarding `O=C(O)C(=O)O.O=C(O)C(=O)O.O=C(O)C(=O)O.[Fe]`, the T/C is, setting by setting: (endpoint: mean survival time, dose: 25.0 mg/kg/injection, schedule: Q04DX002 (ip), vehicle: saline with Tween-80) 91 % of control; (endpoint: mean survival time, dose: 50.0 mg/kg/injection, schedule: Q04DX002 (ip), vehicle: saline with Tween-80) 91 % of control; under setting [1], 87 % of control.

`CC(=O)Oc1cc(N=[N+]=[N-])c(OC(C)=O)cc1C`: the T/C runs as follows: under setting [2], 97 % of control; (endpoint: mean survival time, dose: 200.0 mg/kg/injection, schedule: Q01DX001 (ip), vehicle: saline with Tween-80) 93 % of control.

Regarding `COc1cc(C2c3cc4c(cc3[C@@H](OC3OC5CO[C@@H](C)OC5C(O)C3O)[C@H]3COC(=O)C23)OCO4)cc(OC)c1OC` (stereo partly specified), the T/C by setting is: (endpoint: median survival time, dose: 50.0 mg/kg/injection, schedule: Q01DX005 (ip), vehicle: saline) 164 % of control; (endpoint: median survival time, dose: 60.0 mg/kg/injection, schedule: Q01DX009 (ip), vehicle: saline) 161 % of control; (endpoint: median survival time, dose: 100.0 mg/kg/injection, schedule: Q01DX005 (ip), vehicle: saline) 211 % of control; (endpoint: median survival time, dose: 100.0 mg/kg/injection, schedule: Q01DX009 (ip), vehicle: saline) 277 % of control; (endpoint: median survival time, dose: 166.67 mg/kg/injection, schedule: Q01DX009 (ip), vehicle: saline) 297 % of control; (endpoint: median survival time, dose: 200.0 mg/kg/injection, schedule: Q01DX005 (ip), vehicle: saline) 211 % of control. The T/C (endpoint: median survival time, dose: 277.78 mg/kg/injection, schedule: Q01DX009 (ip), vehicle: saline) is 86 % of control.

On to `CCN1CCN(CC)C1c1ccccc1`, for which the T/C reads like this: under setting [3], 103 % of control; under setting [4], 98 % of control.

For the compound `N#CCCN1c2ccccc2Sc2ccccc21`, the T/C is 102 % of control (endpoint: mean survival time, dose: 75.0 mg/kg/injection, schedule: Q04DX003 (ip), vehicle: saline) and 112 % of control (endpoint: mean survival time, dose: 150.0 mg/kg/injection, schedule: Q04DX003 (ip), vehicle: saline).

Turning to `Cc1ccccc1NC(=O)Oc1cccc(OC(=O)c2ccccc2)c1`, the T/C was 103 % of control under setting [1]; 103 % of control (endpoint: mean survival time, dose: 200.0 mg/kg/injection, schedule: Q04DX002 (ip), vehicle: saline with Tween-80); 91 % of control (endpoint: mean survival time, dose: 400.0 mg/kg/injection, schedule: Q04DX002 (ip), vehicle: saline with Tween-80).

With `O=C(O)c1c2c(nc3ccccc13)-c1cccc3c1N(CCC3)C2`, the T/C (endpoint: mean survival time, dose: 6.25 mg/kg/injection, schedule: Q01DX009 (ip), vehicle: other) was 100 % of control; the T/C (endpoint: mean survival time, dose: 12.5 mg/kg/injection, schedule: Q01DX009 (ip), vehicle: other) was 103 % of control; the T/C (endpoint: mean survival time, dose: 25.0 mg/kg/injection, schedule: Q01DX009 (ip), vehicle: other) was 103 % of control; the T/C (endpoint: mean survival time, dose: 50.0 mg/kg/injection, schedule: Q01DX009 (ip), vehicle: other) is 100 % of control; the T/C (endpoint: mean survival time, dose: 100.0 mg/kg/injection, schedule: Q01DX001 (ip), vehicle: other) is 100 % of control; the T/C (endpoint: mean survival time, dose: 200.0 mg/kg/injection, schedule: Q01DX001 (ip), vehicle: other) is 97 % of control. For the same compound, the T/C (endpoint: mean survival time, dose: 400.0 mg/kg/injection, schedule: Q01DX001 (ip), vehicle: other) was 97 % of control.

Turning to `CSC(=O)C(=O)SC`, the T/C is, setting by setting: (endpoint: mean survival time, dose: 50.0 mg/kg/injection, schedule: Q01DX001 (ip), vehicle: saline with Tween-80) 100 % of control; under setting [2], 108 % of control.

On to `CC(C)(C)OC(=O)N1CCCC1C(=O)Oc1ccc([N+](=O)[O-])cc1` (stereo unspecified), for which the T/C is 98 % of control under setting [5]; 95 % of control under setting [6]; 92 % of control and 93 % of control under setting [7].

As to `CCN(CC)CCN(C)N=Nc1ccccc1C(=O)NN`, the T/C is, setting by setting: (endpoint: mean survival time, dose: 72.0 mg/kg/injection, schedule: Q01DX001 (ip), vehicle: saline) 105 % of control; (endpoint: mean survival time, dose: 145.0 mg/kg/injection, schedule: Q01DX001 (ip), vehicle: saline) 100 % of control.

In the case of `c1cnc(N2CC2)nn1`, the T/C (endpoint: mean survival time, dose: 100.0 mg/kg/injection, schedule: Q01DX001 (ip), vehicle: saline) is 105 % of control and the T/C under setting [8] is 113 % of control.

`CCC[N+](CCC)(CCC)CCC.N#CC(C#N)=C([SH2+])[SH2+].N#CC(C#N)=C([SH2+])[SH2+].N#CC(C#N)=C([SH2+])[SH2+].[Fe+3]`: the T/C is 103 % of control (endpoint: mean survival time, dose: 25.0 mg/kg/injection, schedule: Q04DX003 (ip), vehicle: acetone) and 97 % of control (endpoint: mean survival time, dose: 50.0 mg/kg/injection, schedule: Q04DX003 (ip), vehicle: acetone).

For `COc1ccc(OC)c(C(=O)CCl)c1`, the T/C is, setting by setting: under setting [3], 100 % of control; under setting [7], 96 % of control; under setting [4], 102 % of control; under setting [9], 101 % of control; under setting [10], 92 % of control.

For `Cc1csc2nc(-c3ccccc3)[nH]c(=S)c12`, the T/C reads like this: under setting [7], 90 % of control; under setting [10], 87 % of control.

`COc1ccc(NC(=O)NCc2cccc(Cl)c2)cc1`: the T/C is, setting by setting: (endpoint: mean survival time, dose: 50.0 mg/kg/injection, schedule: Q01DX009 (ip), vehicle: Klucel (hydroxypropylcellulose) (HPC)) 102 % of control; (endpoint: mean survival time, dose: 100.0 mg/kg/injection, schedule: Q01DX009 (ip), vehicle: Klucel (hydroxypropylcellulose) (HPC)) 114 % of control; (endpoint: mean survival time, dose: 200.0 mg/kg/injection, schedule: Q01DX009 (ip), vehicle: Klucel (hydroxypropylcellulose) (HPC)) 117 % of control.

For the compound `CCOC(=O)/C=C\C(=O)O.[Mn]`, the T/C runs as follows: (endpoint: mean survival time, dose: 25.0 mg/kg/injection, schedule: Q04DX003 (ip), vehicle: saline) 102 % of control; (endpoint: mean survival time, dose: 50.0 mg/kg/injection, schedule: Q04DX003 (ip), vehicle: saline) 104 % of control; (endpoint: mean survival time, dose: 100.0 mg/kg/injection, schedule: Q04DX002 (ip), vehicle: saline) 98 % of control; (endpoint: mean survival time, dose: 100.0 mg/kg/injection, schedule: Q04DX003 (ip), vehicle: saline) 112 % of control; under setting [8], 98 % of control; (endpoint: mean survival time, dose: 200.0 mg/kg/injection, schedule: Q04DX002 (ip), vehicle: saline) 97 % of control. Besides, the T/C (endpoint: mean survival time, dose: 300.0 mg/kg/injection, schedule: Q04DX002 (ip), vehicle: saline) was 116 % of control.

Regarding `N=Cc1c(O)n(-c2ccccc2)c(=O)[nH]c1=O`, the T/C is, setting by setting: under setting [3], 101 % of control; under setting [7], 94 % of control; under setting [4], 101 % of control; under setting [9], 92 % of control; (endpoint: mean survival time, dose: 400.0 mg/kg/injection, schedule: Q01DX009 (ip), vehicle: saline with Tween-80) 104 % of control; under setting [10], 97 % of control.

For the compound `C=C1CC(=O)N(c2ccc(OC)cc2)C1=O`, the T/C by setting is: under setting [5], 100 % of control; under setting [6], 107 % of control; under setting [7], 104 % of control.

Turning to `CC(=O)Nc1ccc(OC(C)=O)cc1`, the T/C runs as follows: under setting [5], 97 % of control; under setting [6], 97 % of control; under setting [7], 101 % of control.
